What was measured:
Assay in all cases: biochemical
Parameters in all cases: KINOMEscan scanMAX active site-directed competition binding assay, percent of control, 468 kinases
Conditions in all cases: competition binding, percent of control
TTK = TTK (Homo sapiens, UniProt P33981)
Protocol: (§1) The KINOMEscan^TM screening platform (scanMAX assay) employs a proprietary active site-directed competition binding assay that quantitatively measures the interactions between test compounds (here 100 μM S-carvone) and 468 human protein kinases. The assay was performed at Eurofins DiscoverX Corp. (Fremont, CA, USA). Blocking protein kinase C (PKC) activity was reported to inhibit the transcription of CYP1A1 but to exert no effect on the nuclear translocation of AhR[26], which was also the case here with carvones. Therefore, we tested whether carvones inhibit PKC catalytic activity. […] We also evaluated the interaction between 100 μM S-carvone and 468 human protein kinases, employing KINOMEscan^TM (scanMAX assay), a proprietary active site-directed competition binding assay. The minimal inhibitory threshold used by the screening platform KINOMEscan^TM is 35% of the control kinase activity. Among 468 kinases tested, 467 were above the 35% cutoff. Tyrosine kinase 2 TK2 (JH2 domain pseudokinase) activity was inhibited to 27% of the control activity, but this kinase is not relevant to the regulation of transcription activity (Fig. 5B; Figure S9). Overall, we excluded the possibility that the effects of carvones on AhR signaling are caused indirectly by the inhibition of the human kinome, particularly PKC.

IRAK1 = IRAK1 (Homo sapiens, UniProt P51617)
Protocol: as §1

PAK4 = PAK4 (Homo sapiens, UniProt O96013)
Protocol: as §1

TSSK3 = TSSK3 (Homo sapiens, UniProt Q96PN8)
Protocol: as §1

SBK1 = SBK1 (Homo sapiens, UniProt Q52WX2)
Protocol: as §1

VEGFR2 = molecular target: T1, VEGFR2 (Homo sapiens, UniProt P35968)
T1 construct: gene KDR
Protocol: as §1

PCTK1 = molecular target: T2, PCTK1 (Homo sapiens, UniProt Q00536)
T2 construct: gene CDK16
Protocol: as §1

KIT(V559D) = KIT(V559D) (Homo sapiens, UniProt P10721, V559D)
Protocol: as §1

TRKA = molecular target: T3, TRKA (Homo sapiens, UniProt P04629)
T3 construct: gene NTRK1
Protocol: as §1

FLT3 = FLT3 (Homo sapiens, UniProt P36888)
Protocol: as §1

AXL = AXL (Homo sapiens, UniProt P30530)
Protocol: as §1

FYN = FYN (Homo sapiens, UniProt P06241)
Protocol: as §1

PIK3CA(C420R) = PIK3CA(C420R) (Homo sapiens, UniProt P42336, C420R)
Protocol: as §1

AURKB = AURKB (Homo sapiens, UniProt Q96GD4)
Protocol: as §1

TEC = TEC (Homo sapiens, UniProt P42680)
Protocol: as §1

[1] = molecular target: T4, RSK1(Kin.Dom.2-C-terminal) (Homo sapiens, UniProt Q15418)
T4 construct: gene RPS6KA1; Kin.Dom.2-C-terminal
Protocol: as §1

CAMKK2 = CAMKK2 (Homo sapiens, UniProt Q96RR4)
Protocol: as §1

[2] = molecular target: T5, RPS6KA4(Kin.Dom.2-C-terminal) (Homo sapiens, UniProt O75676)
T5 construct: Kin.Dom.2-C-terminal
Protocol: as §1

MET = MET (Homo sapiens, UniProt P08581)
Protocol: as §1

NEK9 = NEK9 (Homo sapiens, UniProt Q8TD19)
Protocol: as §1

CAMK2G = CAMK2G (Homo sapiens, UniProt Q13555)
Protocol: as §1

T2 sequence (Q00536 whole entry): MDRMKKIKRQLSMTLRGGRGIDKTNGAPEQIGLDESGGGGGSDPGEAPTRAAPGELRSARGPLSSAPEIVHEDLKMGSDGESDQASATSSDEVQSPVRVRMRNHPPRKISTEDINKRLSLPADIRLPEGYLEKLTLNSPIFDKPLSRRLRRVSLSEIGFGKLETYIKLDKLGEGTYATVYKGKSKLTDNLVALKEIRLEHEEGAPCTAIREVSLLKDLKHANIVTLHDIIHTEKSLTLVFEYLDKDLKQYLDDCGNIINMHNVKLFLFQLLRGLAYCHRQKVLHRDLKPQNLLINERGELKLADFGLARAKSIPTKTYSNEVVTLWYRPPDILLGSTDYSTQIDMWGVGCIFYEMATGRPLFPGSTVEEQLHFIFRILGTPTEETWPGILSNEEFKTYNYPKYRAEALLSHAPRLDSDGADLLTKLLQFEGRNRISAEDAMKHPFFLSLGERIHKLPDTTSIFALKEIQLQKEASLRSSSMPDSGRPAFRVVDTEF
PAK4, sequence (O96013 whole entry): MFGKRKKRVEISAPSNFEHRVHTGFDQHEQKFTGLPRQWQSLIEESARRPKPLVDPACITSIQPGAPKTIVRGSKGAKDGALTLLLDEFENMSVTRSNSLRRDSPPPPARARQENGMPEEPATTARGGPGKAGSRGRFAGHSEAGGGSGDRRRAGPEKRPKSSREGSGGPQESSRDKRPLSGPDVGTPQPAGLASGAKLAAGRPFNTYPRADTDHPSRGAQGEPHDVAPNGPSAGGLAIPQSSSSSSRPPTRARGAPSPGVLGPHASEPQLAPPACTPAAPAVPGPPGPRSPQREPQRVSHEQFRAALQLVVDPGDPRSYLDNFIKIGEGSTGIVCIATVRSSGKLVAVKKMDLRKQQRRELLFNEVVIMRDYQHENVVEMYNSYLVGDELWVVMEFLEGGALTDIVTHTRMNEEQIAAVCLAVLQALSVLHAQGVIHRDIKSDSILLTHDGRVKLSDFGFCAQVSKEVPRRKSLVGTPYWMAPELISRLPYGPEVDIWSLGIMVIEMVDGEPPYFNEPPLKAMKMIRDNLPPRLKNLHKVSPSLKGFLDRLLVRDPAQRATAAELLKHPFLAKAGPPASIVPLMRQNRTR
FLT3, sequence (P36888 whole entry): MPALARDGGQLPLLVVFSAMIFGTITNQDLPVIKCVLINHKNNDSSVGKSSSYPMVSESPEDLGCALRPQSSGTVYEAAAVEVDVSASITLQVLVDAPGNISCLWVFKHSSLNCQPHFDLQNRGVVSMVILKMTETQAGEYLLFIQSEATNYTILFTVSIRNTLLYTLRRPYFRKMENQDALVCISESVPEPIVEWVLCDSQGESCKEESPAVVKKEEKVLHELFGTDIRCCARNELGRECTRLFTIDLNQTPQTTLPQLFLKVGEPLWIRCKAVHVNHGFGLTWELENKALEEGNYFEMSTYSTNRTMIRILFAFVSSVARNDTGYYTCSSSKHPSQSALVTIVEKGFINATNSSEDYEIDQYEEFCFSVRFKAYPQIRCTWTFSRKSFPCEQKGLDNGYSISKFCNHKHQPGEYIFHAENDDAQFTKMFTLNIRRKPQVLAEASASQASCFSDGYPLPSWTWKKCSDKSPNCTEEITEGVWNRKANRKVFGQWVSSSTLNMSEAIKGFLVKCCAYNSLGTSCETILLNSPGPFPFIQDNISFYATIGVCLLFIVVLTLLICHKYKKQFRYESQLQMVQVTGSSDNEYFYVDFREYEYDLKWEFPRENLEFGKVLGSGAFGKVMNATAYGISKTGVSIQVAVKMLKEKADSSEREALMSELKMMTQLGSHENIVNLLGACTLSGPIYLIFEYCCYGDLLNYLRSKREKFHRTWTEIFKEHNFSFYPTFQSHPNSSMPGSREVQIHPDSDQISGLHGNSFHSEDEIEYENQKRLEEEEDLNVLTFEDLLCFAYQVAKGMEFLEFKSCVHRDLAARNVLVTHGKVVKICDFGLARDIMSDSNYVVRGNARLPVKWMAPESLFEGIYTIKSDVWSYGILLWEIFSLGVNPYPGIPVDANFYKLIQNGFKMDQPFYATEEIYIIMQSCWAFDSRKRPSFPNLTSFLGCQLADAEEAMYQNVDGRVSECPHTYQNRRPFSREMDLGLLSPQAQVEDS
TEC, sequence (P42680 whole entry): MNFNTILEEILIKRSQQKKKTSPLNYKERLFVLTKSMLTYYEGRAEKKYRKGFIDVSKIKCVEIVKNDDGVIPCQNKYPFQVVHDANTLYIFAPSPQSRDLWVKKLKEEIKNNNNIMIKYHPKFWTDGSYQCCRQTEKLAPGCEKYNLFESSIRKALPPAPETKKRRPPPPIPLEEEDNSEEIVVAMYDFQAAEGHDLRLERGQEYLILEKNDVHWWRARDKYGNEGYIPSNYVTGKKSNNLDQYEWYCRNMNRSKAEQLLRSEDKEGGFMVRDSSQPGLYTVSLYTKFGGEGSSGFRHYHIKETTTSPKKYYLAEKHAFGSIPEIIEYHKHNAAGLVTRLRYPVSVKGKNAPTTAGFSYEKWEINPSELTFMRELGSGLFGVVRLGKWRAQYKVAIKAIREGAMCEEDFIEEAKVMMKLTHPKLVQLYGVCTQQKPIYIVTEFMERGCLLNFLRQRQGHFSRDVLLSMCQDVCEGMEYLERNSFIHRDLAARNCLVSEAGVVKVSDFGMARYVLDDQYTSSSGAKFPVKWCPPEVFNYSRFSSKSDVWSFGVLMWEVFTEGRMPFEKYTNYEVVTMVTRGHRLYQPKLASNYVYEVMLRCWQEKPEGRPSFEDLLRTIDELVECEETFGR
TTK, sequence (P33981 whole entry): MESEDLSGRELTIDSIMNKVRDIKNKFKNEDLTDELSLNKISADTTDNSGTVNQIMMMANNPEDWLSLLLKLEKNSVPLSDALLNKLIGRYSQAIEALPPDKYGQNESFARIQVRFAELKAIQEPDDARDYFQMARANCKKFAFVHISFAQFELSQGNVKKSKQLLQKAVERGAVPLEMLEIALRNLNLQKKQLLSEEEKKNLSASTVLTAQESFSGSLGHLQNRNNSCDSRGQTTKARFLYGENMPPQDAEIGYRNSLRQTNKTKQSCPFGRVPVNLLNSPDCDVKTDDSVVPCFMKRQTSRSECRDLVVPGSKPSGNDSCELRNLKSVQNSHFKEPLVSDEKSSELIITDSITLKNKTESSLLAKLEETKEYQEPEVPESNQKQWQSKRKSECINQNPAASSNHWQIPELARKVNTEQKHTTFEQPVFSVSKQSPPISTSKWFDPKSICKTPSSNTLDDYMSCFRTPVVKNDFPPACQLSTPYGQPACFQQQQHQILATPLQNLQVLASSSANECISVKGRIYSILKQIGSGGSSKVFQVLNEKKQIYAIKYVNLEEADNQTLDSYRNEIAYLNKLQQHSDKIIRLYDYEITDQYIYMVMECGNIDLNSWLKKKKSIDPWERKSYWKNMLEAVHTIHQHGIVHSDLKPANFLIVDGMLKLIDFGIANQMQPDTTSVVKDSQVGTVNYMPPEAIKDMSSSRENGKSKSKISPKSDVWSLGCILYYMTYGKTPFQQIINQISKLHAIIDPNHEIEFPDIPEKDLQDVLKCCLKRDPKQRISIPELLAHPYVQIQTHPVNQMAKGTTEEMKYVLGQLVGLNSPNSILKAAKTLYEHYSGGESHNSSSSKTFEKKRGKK
KIT(V559D), sequence (P10721 whole entry V559D): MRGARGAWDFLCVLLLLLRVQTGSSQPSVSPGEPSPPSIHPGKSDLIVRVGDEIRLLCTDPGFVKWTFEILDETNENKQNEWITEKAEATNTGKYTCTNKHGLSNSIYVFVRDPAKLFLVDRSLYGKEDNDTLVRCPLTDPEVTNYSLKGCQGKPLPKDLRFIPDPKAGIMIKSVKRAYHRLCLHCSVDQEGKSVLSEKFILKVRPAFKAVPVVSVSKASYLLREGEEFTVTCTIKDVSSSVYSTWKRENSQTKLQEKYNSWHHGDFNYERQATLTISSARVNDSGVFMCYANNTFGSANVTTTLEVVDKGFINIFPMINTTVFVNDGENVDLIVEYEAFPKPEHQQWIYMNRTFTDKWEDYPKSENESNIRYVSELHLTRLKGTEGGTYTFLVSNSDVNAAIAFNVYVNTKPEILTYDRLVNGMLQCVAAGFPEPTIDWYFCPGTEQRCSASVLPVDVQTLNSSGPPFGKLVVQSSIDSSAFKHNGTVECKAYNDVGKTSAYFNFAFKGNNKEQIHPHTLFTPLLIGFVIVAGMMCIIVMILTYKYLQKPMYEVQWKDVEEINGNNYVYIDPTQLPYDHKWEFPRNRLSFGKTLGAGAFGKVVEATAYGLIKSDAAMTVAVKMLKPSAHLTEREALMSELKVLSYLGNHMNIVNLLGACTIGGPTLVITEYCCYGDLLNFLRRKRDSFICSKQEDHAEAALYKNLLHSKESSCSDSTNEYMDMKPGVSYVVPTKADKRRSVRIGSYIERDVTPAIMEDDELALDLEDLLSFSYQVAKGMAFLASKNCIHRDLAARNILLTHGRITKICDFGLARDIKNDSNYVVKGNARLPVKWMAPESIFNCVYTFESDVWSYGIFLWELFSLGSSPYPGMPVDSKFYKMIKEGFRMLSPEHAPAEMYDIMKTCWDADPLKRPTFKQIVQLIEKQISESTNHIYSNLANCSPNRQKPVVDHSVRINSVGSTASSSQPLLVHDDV
SBK1, sequence (Q52WX2 whole entry): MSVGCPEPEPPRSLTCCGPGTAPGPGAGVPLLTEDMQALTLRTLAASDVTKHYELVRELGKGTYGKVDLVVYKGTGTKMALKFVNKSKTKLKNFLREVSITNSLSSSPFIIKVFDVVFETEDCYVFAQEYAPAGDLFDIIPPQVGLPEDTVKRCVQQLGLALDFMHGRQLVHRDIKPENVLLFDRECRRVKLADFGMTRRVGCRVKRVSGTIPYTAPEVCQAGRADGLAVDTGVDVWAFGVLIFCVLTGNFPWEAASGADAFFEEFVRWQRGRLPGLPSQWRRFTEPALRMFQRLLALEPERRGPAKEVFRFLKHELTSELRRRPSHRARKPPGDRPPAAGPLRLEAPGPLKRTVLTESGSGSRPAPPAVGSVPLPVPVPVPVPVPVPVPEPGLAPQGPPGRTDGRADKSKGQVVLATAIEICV

For `C=C(C)[C@H]1CC=C(C)C(=O)C1` [S-carvone], which remaining binding at 100 µM (TTK) is on record?
Its remaining binding at 100 µM is 80%.

What about the remaining binding at 100 µM (IRAK1) of the same compound?
Its remaining binding at 100 µM is 65%.

And the remaining binding at 100 µM (PAK4)?
The remaining binding at 100 µM was 74%.

And the remaining binding at 100 µM (TSSK3)?
The remaining binding at 100 µM was 100%.

And the remaining binding at 100 µM (SBK1)?
Its remaining binding at 100 µM is 100%.

And the remaining binding at 100 µM (VEGFR2)?
The remaining binding at 100 µM was 60%.

And the remaining binding at 100 µM (PCTK1)?
Its remaining binding at 100 µM is 100%.

And the remaining binding at 100 µM (KIT(V559D))?
The remaining binding at 100 µM was 89%.

And the remaining binding at 100 µM (TRKA)?
Its remaining binding at 100 µM is 82%.

And the remaining binding at 100 µM (FLT3)?
The remaining binding at 100 µM was 71%.

What about the remaining binding at 100 µM (AXL) of the same compound?
The remaining binding at 100 µM was 82%.

What about the remaining binding at 100 µM (FYN) of the same compound?
Its remaining binding at 100 µM is 90%.

What about the remaining binding at 100 µM (PIK3CA(C420R)) of the same compound?
Its remaining binding at 100 µM is 96%.

And the remaining binding at 100 µM (AURKB)?
The remaining binding at 100 µM was 68%.

And the remaining binding at 100 µM (TEC)?
Its remaining binding at 100 µM is 96%.

And the remaining binding at 100 µM [1]?
The remaining binding at 100 µM was 54%.

And the remaining binding at 100 µM (CAMKK2)?
The remaining binding at 100 µM was 81%.

What about the remaining binding at 100 µM [2] of the same compound?
The remaining binding at 100 µM was 75%.

And the remaining binding at 100 µM (MET)?
Its remaining binding at 100 µM is 90%.

And the remaining binding at 100 µM (NEK9)?
The remaining binding at 100 µM was 80%.

What about the remaining binding at 100 µM (CAMK2G) of the same compound?
The remaining binding at 100 µM was 84%.
